# Measurements: patent US8685976B2, “Cell adhesion promoting agent and method of promoting cell adhesion” (Kyoto University, priority 2008, dated 2014)
# Assays:
# HepG2 cells = test: Enzymatic treatment of cells, cell adhesion, HepG2; assay type: cell-based; settings: heparinases 0.02 units/mL, chondroitinase ABC 0.1 units/mL
# Procedure: (§1) In (A) and (B), Jurkat cells (A) or HepG2 cells (B) were pretreated with 0.02 units/mL of heparinase, heparitinase I, and heparitinase II, or 0.1 units/mL of protease-free chondroitinase ABC in a serum-free culture medium for 1 hour at 37° C. before evaluating cell adhesion. The treated cells were seeded onto adhesamine-added or fibronectin-coated plastic wells. The attached cells were counted at 5 hours after seeding. The concentrations of adhesamine and fibronectin were 6 μM and 5 μg/mL, respectively. Each point represents the means±SD. (C) and (D) show localization of Compound 4 in HepG2 cells treated with heparinase/heparitinase I/heparitinase II (C) or chondroitinase ABC (D).
# The effects of these GAG-degrading enzymes on the intact or adhesamine-enhanced attachment of HepG2 cells were examined. […] As observed in Jurkat cells, adhesamine-induced cell adhesion was canceled by heparan sulfate-degrading enzymes, but not by chondroitinase ABC (FIG. 9B).
# Jurkat cells = test: Enzymatic treatment of cells, cell adhesion, Jurkat; assay type: cell-based, human; settings: heparinases 0.02 units/mL, chondroitinase ABC 0.1 units/mL
# Procedure: as §1
# Jurkat cells (5×10^4) were cultured in 100 μL of RPMI and treated with a combination of heparinase, heparitinase I, and heparitinase II (0.02 units/mL) or chondroitinase ABC (0.1 units/mL) for 30 min at room temperature. The ability of the treated cells to respond to adhesamine was evaluated by counting the cells that were attached to plastic wells of a 96-well plate in the presence of adhesamine (6 μM).
substance,measurement,setting,value
chondroitinase ABC,inhibition of intact attachment of HepG2 cells,HepG2 cells,7%
same,effect on adhesamine-induced cell attachment,Jurkat cells,no detectable effects
